Patent publication US4140849A, “Kanamycin C derivatives” (Zaidan Hojin Biseibutsu Kagaku Kenkyu Kai, priority 1977, dated 1979)
Values after ≈ are worked out from the molar mass of the structure shown. Like-named read-outs stand apart in the source and are kept apart here.

What was measured:
[1] = test system: 6'-acetyltransferase; conditions: cited from earlier work; for acetylation by a 6'-acetyltransferase: enzyme obtained from aminoglycoside-resistant strains, such as Pseudomonas aeruginosa GN315
[2] = test system: resistant bacteria producing the 2"-nucleotidyltransferase; conditions: prior compounds; cited from earlier work
[3] = test system: resistant bacteria producing the aminoglycoside 6'-acetyltransferase; conditions: cited from earlier work
[4] = test system: resistant bacteria producing aminoglycoside 3'-phosphotransferase; conditions: cited from earlier work
[5] = test system: Escherichia coli W 677; assay: Minimum inhibitory concentration, serial dilution on nutrient agar; format: cell-based; conditions: W677, 37° C., 18 hours, read-out: Minimum Inhibitory Concentrations
Procedure: (§1) The minimum inhibitory concentrations (mcg/ml.) of 1-N-(L-4-amino-2-hydroxybutyryl)-kanamycin C (abbreviated as AHB-KC), 1-N-(L-4-amino-2-hydroxybutyryl)-3'-deoxykanamycin C (abbreviated as AHB-DKC) and 1-N-(L-4-amino-2-hydroxybutyryl)-3',4'-dideoxykanamycin C (abbreviated as AHB-DDKC) against various microorganisms were determined according to serial dilution method on nutrient agar medium at 37° C., the estimation being effected after 18 hours incubation. For comparison, the minimum inhibitory concentrations of 1-N-(L-4-amino-2-hydroxybutyryl)-kanamycin A (amikacin) was also determined in the same manner as described above.

[6] = test system: Escherichia coli JR 66/W677; assay: as above; format: cell-based; conditions: read-out: Minimum Inhibitory Concentrations
Procedure: as §1

[7] = test system: Pseudomonas aeruginosa No. 12; assay: as above; format: cell-based; conditions: read-out: Minimum Inhibitory Concentrations
Procedure: as §1

[8] = test system: Escherichia coli K-12 ML 1629; assay: as above; format: cell-based; conditions: K12ML1629, 37° C., 18 hours, read-out: Minimum Inhibitory Concentrations
Procedure: as §1

[9] = test system: Klebsiella pneumoniae PCI 602; assay: as above; format: cell-based; conditions: PCI602, 37° C., 18 hours, read-out: Minimum Inhibitory Concentrations
Procedure: as §1

[10] = test system: Pseudomonas aeruginosa GN 315; assay: as above; format: cell-based; conditions: GN315, 37° C., 18 hours, read-out: Minimum Inhibitory Concentrations
Procedure: as §1

[11] = test system: Escherichia coli K-12 ML 1630; assay: as above; format: cell-based; conditions: K12ML1630, 37° C., 18 hours, read-out: Minimum Inhibitory Concentrations
Procedure: as §1

[12] = test system: Escherichia coli K-12; assay: as above; format: cell-based; conditions: K12, 37° C., 18 hours, read-out: Minimum Inhibitory Concentrations
Procedure: as §1

[13] = test system: Pseudomonas aeruginosa TI-13; assay: as above; format: cell-based; conditions: read-out: Minimum Inhibitory Concentrations
Procedure: as §1

[14] = test system: Pseudomonas aeruginosa 99; assay: as above; format: cell-based; conditions: 37° C., 18 hours, read-out: Minimum Inhibitory Concentrations
Procedure: as §1

[15] = test system: Escherichia coli LA 290 R56; assay: as above; format: cell-based; conditions: LA290R56, 18 h, read-out: Minimum Inhibitory Concentrations
Procedure: as §1

[16] = test system: Mycobacterium smegmatis ATCC 607; assay: as above; format: cell-based; conditions: Mycolicibacterium smegmatis, ATCC607, 37° C., 18 hours, read-out: Minimum Inhibitory Concentrations
Procedure: as §1

[17] = test system: Escherichia coli K-12 R5; assay: as above; format: cell-based; conditions: K12R5, 18 h, read-out: Minimum Inhibitory Concentrations
Procedure: as §1

[18] = test system: Escherichia coli K-12 ML 1410 R81; assay: as above; format: cell-based; conditions: 18 h, read-out: Minimum Inhibitory Concentrations
Procedure: as §1

[19] = test system: Pseudomonas aeruginosa H 11; assay: as above; format: cell-based; conditions: H11, 37° C., 18 hours, read-out: Minimum Inhibitory Concentrations
Procedure: as §1

[20] = test system: Escherichia coli LA 290 R55; assay: as above; format: cell-based; conditions: LA290R55, 18 h, read-out: Minimum Inhibitory Concentrations
Procedure: as §1

[21] = test system: Escherichia coli NIHJ; assay: as above; format: cell-based; conditions: 37° C., 18 hours, read-out: Minimum Inhibitory Concentrations
Procedure: as §1

[22] = test system: Klebsiella pneumoniae 22 No. 3038; assay: as above; format: cell-based; conditions: read-out: Minimum Inhibitory Concentrations
Procedure: as §1

[23] = test system: Escherichia coli LA 290 R64; assay: as above; format: cell-based; conditions: LA290R64, 18 h, read-out: Minimum Inhibitory Concentrations
Procedure: as §1

[24] = test system: Pseudomonas aeruginosa A3; assay: as above; format: cell-based; conditions: read-out: Minimum Inhibitory Concentrations
Procedure: as §1

[25] = test system: Staphylococcus aureus FDA 209P; assay: as above; format: cell-based; conditions: FDA209P, 37° C., 18 hours, read-out: Minimum Inhibitory Concentrations
Procedure: as §1

[26] = test system: Escherichia coli K-12 ML 1410; assay: as above; format: cell-based; conditions: K12ML1410, 37° C., 18 hours, read-out: Minimum Inhibitory Concentrations
Procedure: as §1

[27] = LD50 upon intravenous injection in mice; conditions: mouse, in vivo, estimated
[28] = JR66/W677, Escherichia coli JR 66/W677, nutrient agar, 37° C., 18 hours
[29] = Pseudomonas aeruginosa No. 12, nutrient agar, 37° C., 18 hours
[30] = TI13, Pseudomonas aeruginosa TI-13, nutrient agar, 37° C., 18 hours
[31] = Klebsiella pneumoniae 22 No. 3038, nutrient agar, 37° C., 18 hours
[32] = Pseudomonas aeruginosa A3, nutrient agar, 37° C., 18 hours

| SMILES | growth inhibition of resistant bacteria producing the 2"-nucleotidyltransferase [2] | MIC [5] [µg/mL] | MIC [6, 28] [µg/mL] | MIC [7, 29] [µg/mL] | MIC [8] [µg/mL] | MIC [9] [µg/mL] | MIC [10] [µg/mL] | MIC [11] [µg/mL] | MIC [12] [µg/mL] | MIC [14] [µg/mL] | MIC [15] [µg/mL] | MIC [16] [µg/mL] | MIC [17] [µg/mL] | MIC [18] [µg/mL] | MIC [19] [µg/mL] | MIC [20] [µg/mL] | MIC [21] [µg/mL] | MIC [23] [µg/mL] | MIC [25] [µg/mL] | MIC [26] [µg/mL] | other results |
| --- | --- | --- | --- | --- | --- | --- | --- | --- | --- | --- | --- | --- | --- | --- | --- | --- | --- | --- | --- | --- | --- |
| NCCC(O)C(=O)NC1CC(N)C(OC2OC(CN)C(O)C(O)C2N)C(O)C1OC1OC(CO)C(O)C(N)C1O [1-N-(L-4-amino-2-hydroxybutyryl)-kanamycin B] | – | – | – | – | – | – | – | – | – | – | – | – | – | – | – | – | – | – | – | – | acetylation by a 6'-acetyltransferase [1]: acetylated |
| NC1CCC(CO)OC1OC1C(N)CC(N)C(OC2OC(CO)C(O)C(N)C2O)C1O (stereo not drawn) [3',4 '-dideoxykanamycin C, 3',4'-dideoxykanamycin C] | not able to inhibit the growth | – | – | – | – | – | – | – | – | – | – | – | – | – | – | – | – | – | – | – | – |
| NCC1CCC(N)C(OC2C(N)CC(N)C(OC3OC(CO)C(O)C(N)C3O)C2O)O1 (stereo not drawn) [3',4'-dideoxykanamycin B] | do not inhibit the growth | – | – | – | – | – | – | – | – | – | – | – | – | – | – | – | – | – | – | – | growth inhibition of resistant bacteria producing the aminoglycoside 6'-acetyltransferase [3]: do not inhibit the growth; activity against resistant bacteria producing aminoglycoside 3'-phosphotransferase [4]: active against the resistant bacteria |
| NCC1OC(OC2C(N)CC(N)C(OC3OC(CO)C(O)C(N)C3O)C2O)C(N)CC1O (stereo not drawn) [3'-deoxykanamycin B] | do not inhibit the growth | – | – | – | – | – | – | – | – | – | – | – | – | – | – | – | – | – | – | – | growth inhibition of resistant bacteria producing the aminoglycoside 6'-acetyltransferase [3]: do not inhibit the growth; activity against resistant bacteria producing aminoglycoside 3'-phosphotransferase [4]: active against the resistant bacteria |
| NC1CC(O)C(CO)OC1OC1C(N)CC(N)C(OC2OC(CO)C(O)C(N)C2O)C1O (stereo not drawn) [3'-deoxykanamycin C] | not able to inhibit the growth | – | – | – | – | – | – | – | – | – | – | – | – | – | – | – | – | – | – | – | – |
| NCCC(O)C(=O)NC1CC(N)C(OC2OC(CO)CCC2N)C(O)C1OC1OC(CO)C(O)C(N)C1O [AHB-DDKC, 1-N-(L-4-amino-2-hydroxybutyryl)-3',4'-dideoxykanamycin C] | – | 12.5 (≈ 22.6 µM) | 25 (≈ 45.2 µM) | 100 (≈ 181 µM) | 6.25 (≈ 11.3 µM) | 6.25 (≈ 11.3 µM) | 100 (≈ 181 µM) | 12.5 (≈ 22.6 µM) | 12.5 (≈ 22.6 µM) | 100 (≈ 181 µM) | 6.25 (≈ 11.3 µM) | 6.25 (≈ 11.3 µM) | 12.5 (≈ 22.6 µM) | 25 (≈ 45.2 µM) | 100 (≈ 181 µM) | 12.5 (≈ 22.6 µM) | 12.5 (≈ 22.6 µM) | 12.5 (≈ 22.6 µM) | 12.5 (≈ 22.6 µM) | 25 (≈ 45.2 µM) | MIC [13, 30]: 100 µg/mL (≈ 181 µM); MIC [22, 31]: 25 µg/mL (≈ 45.2 µM); MIC [24, 32]: 12.5 µg/mL (≈ 22.6 µM) |
| NCCC(O)C(=O)NC1CC(N)C(OC2OC(CO)C(O)CC2N)C(O)C1OC1OC(CO)C(O)C(N)C1O [AHB-DKC, 1-N-(L-4-amino-2-hydroxybutyryl)-3'-deoxykanamycin C] | – | 6.25 (≈ 11 µM) | 12.5 (≈ 21.9 µM) | 50 (≈ 87.8 µM) | 6.25 (≈ 11 µM) | 3.13 (≈ 5.49 µM) | 50 (≈ 87.8 µM) | 12.5 (≈ 21.9 µM) | 6.25 (≈ 11 µM) | 100 (≈ 176 µM) | 6.25 (≈ 11 µM) | 12.5 (≈ 21.9 µM) | 6.25 (≈ 11 µM) | 12.5 (≈ 21.9 µM) | 50 (≈ 87.8 µM) | 12.5 (≈ 21.9 µM) | 6.25 (≈ 11 µM) | 3.13 (≈ 5.49 µM) | 6.25 (≈ 11 µM) | 6.25 (≈ 11 µM) | LD50 [27]: > 400 mg/kg; MIC [13, 30]: 50 µg/mL (≈ 87.8 µM); MIC [22, 31]: 6.25 µg/mL (≈ 11 µM); MIC [24, 32]: 6.25 µg/mL (≈ 11 µM) |
| NCCC(O)C(=O)NC1CC(N)C(OC2OC(CO)C(O)C(O)C2N)C(O)C1OC1OC(CO)C(O)C(N)C1O [AHB-KC, 1-N-(L-4-amino-2-hydroxybutyryl)-kanamycin C] | – | 12.5 (≈ 21.3 µM) | 25 (≈ 42.7 µM) | 50 (≈ 85.4 µM) | 6.25 (≈ 10.7 µM) | 3.13 (≈ 5.34 µM) | 50 (≈ 85.4 µM) | 12.5 (≈ 21.3 µM) | 12.5 (≈ 21.3 µM) | 100 (≈ 171 µM) | 6.25 (≈ 10.7 µM) | 3.13 (≈ 5.34 µM) | 6.25 (≈ 10.7 µM) | 12.5 (≈ 21.3 µM) | 100 (≈ 171 µM) | 12.5 (≈ 21.3 µM) | 6.25 (≈ 10.7 µM) | 12.5 (≈ 21.3 µM) | 6.25 (≈ 10.7 µM) | 25 (≈ 42.7 µM) | LD50 [27]: > 400 mg/kg; MIC [13, 30]: 50 µg/mL (≈ 85.4 µM); MIC [22, 31]: 12.5 µg/mL (≈ 21.3 µM); MIC [24, 32]: 12.5 µg/mL (≈ 21.3 µM) |
| NCC[C@H](O)C(=O)N[C@@H]1C[C@H](N)[C@@H](O[C@H]2O[C@H](CN)[C@@H](O)[C@H](O)[C@H]2O)[C@H](O)[C@H]1O[C@H]1O[C@H](CO)[C@@H](O)[C@H](N)[C@H]1O [Amikacin, 1-N-(L-4-amino-2-hydroxybutyryl)-kanamycin A, reference compound] | – | < 0.2 | – | – | 0.78 (≈ 1.33 µM) | 0.39 (≈ 0.666 µM) | 100 (≈ 171 µM) | 0.78 (≈ 1.33 µM) | 0.78 (≈ 1.33 µM) | 6.25 (≈ 10.7 µM) | 0.39 (≈ 0.666 µM) | < 0.2 | 0.39 (≈ 0.666 µM) | 1.56 (≈ 2.66 µM) | 12.5 (≈ 21.3 µM) | 0.78 (≈ 1.33 µM) | 0.78 (≈ 1.33 µM) | 0.39 (≈ 0.666 µM) | 0.39 (≈ 0.666 µM) | 0.78 (≈ 1.33 µM) | acetylation by a 6'-acetyltransferase [1]: acetylated; MIC ([6]; Escherichia coli, JR66/W677, 18 h): 1.56 µg/mL (≈ 2.66 µM); MIC ([7]; Pseudomonas aeruginosa, NO.12, 18 h): 3.13 µg/mL (≈ 5.34 µM); MIC ([13]; Pseudomonas aeruginosa, TI13, 18 h): 3.13 µg/mL (≈ 5.34 µM); MIC ([22]; Klebsiella pneumoniae, 22NO.3038, 18 h): 1.56 µg/mL (≈ 2.66 µM); MIC ([24]; Pseudomonas aeruginosa, A3, 18 h): 3.13 µg/mL (≈ 5.34 µM) |
| NC1CC(N)C(OC2OC(CO)C(O)C(N)C2O)C(O)C1OC1OC(CO)C(O)C(O)C1N (stereo not drawn) [kanamycin C] | not able to inhibit the growth | – | – | – | – | – | – | – | – | – | – | – | – | – | – | – | – | – | – | – | inactivation by the 6'-acetyltransferase ([1]; see co-pending applications): cannot be inactivated |
